Reference: ChEMBL document CHEMBL5038632, “Discovery and Characterization of Potent Dual P-Glycoprotein and CYP3A4 Inhibitors: Design, Synthesis, Cryo-EM Analysis, and Biological Evaluations” (J Med Chem, 2022)
pIC50: −log10 of the molar value.

How the values were obtained:
MES-SA/Dx5 = assay: Cytotoxicity in human MES-SA/Dx5 cells assessed as reduction in cell viability at 1.28 uM incubated for 3 days by MTT assay relative to control; assay type: toxicity, cell-based; conditions: mes-sa/dx5, 72 h, time 3 day
Cytochrome P450 3A4 = Cytochrome P450 3A4 (Homo sapiens, UniProt P08684); assay: Inhibition of CYP3A4 in human liver microsomes using IPA as substrate preincubated for 10 mins followed by NADPH generating system addition and measured after 20 mins
MDR1 [1] = assay: Efflux ratio of apparent permeability across apical to basolateral to basolateral to apical membrane membrane in MDCKII-MDR1at 1 uM in presence of valspodar; assay type: ADME, cell-based, Canis lupus familiaris; conditions: dog, MDCK-MDR1, with valspodar (concentration not stated)
[2] = Efflux ratio of apparent permeability across apical to basolateral to basolateral to apical membrane membrane in MDCK1 at 1 uM; assay type: ADME, cell-based, Canis lupus familiaris; conditions: dog, MDCK
[3] = Efflux ratio of apparent permeability across apical to basolateral to basolateral to apical membrane membrane in MDCK1 at 1 uM in presence of valspodar; assay type: ADME, cell-based, Canis lupus familiaris; conditions: dog, MDCK, with valspodar (concentration not stated)
MDR1 [4] = assay: Apparent permeability across basolateral side to apical side in MDCKII-MDR1 cells at 1 uM by LC/MS/MS analysis; assay type: ADME, cell-based, Canis lupus familiaris; conditions: dog, MDCK-MDR1
MDR1 [5] = assay: Efflux ratio of apparent permeability across apical to basolateral to basolateral to apical membrane in MDCKII-MDR1 at 1 uM; assay type: ADME, cell-based, Canis lupus familiaris; conditions: dog, MDCK-MDR1
MDR1 [6] = assay: Apparent permeability across basolateral side to apical side in MDCKII-MDR1 cells at 3 uM by LC/MS/MS analysis; assay type: ADME, cell-based, Canis lupus familiaris; conditions: dog, MDCK-MDR1
MDR1 [7] = assay: Apparent permeability across apical to basolateral side in MDCKII-MDR1 cells at 3 uM by LC/MS/MS analysis; assay type: ADME, cell-based, Canis lupus familiaris; conditions: dog, MDCK-MDR1
[8] = Cmax in CD-1 mouse at 20 mg/kg, po by LC-MS/MS analysis; assay type: ADME, organism-based; design: route oral, dose 20 mg/kg; conditions: in vivo
[9] = AUC (0 to t) in CD-1 mouse at 20 mg/kg, po 30 mins prior to 10 mg/kg, po docetaxel administration measured after 8 hrs by LC-MS/MS analysis; assay type: ADME, organism-based; design: route oral, dose 20 mg/kg, time 8.5 hrs; conditions: in vivo
MDR1 [10] = assay: Efflux ratio of apparent permeability across apical to basolateral to basolateral to apical membrane membrane in MDCKII-MDR1 at 3 uM; assay type: ADME, cell-based, Canis lupus familiaris; conditions: dog, MDCK-MDR1
[11] = Apparent permeability across basolateral side to apical side in MDCK1 cells at 3 uM by LC/MS/MS analysis; assay type: ADME, cell-based, Canis lupus familiaris; conditions: dog, MDCK
[12] = Cmax in CD-1 mouse at 20 mg/kg, po 30 mins prior to 10 mg/kg, po docetaxel administration measured after 8 hrs by LC-MS/MS analysis; assay type: ADME, organism-based; design: route oral, time 8.5 hrs, dose 20 mg/kg; conditions: in vivo
[13] = Efflux ratio of apparent permeability across apical to basolateral to basolateral to apical membrane membrane in MDCK1 at 3 uM; assay type: ADME, cell-based, Canis lupus familiaris; conditions: dog, mdck1, 3 µM
[14] = Apparent permeability across apical to basolateral side in MDCK1 cells at 3 uM by LC/MS/MS analysis; assay type: ADME, cell-based, Canis lupus familiaris; conditions: dog, MDCK
MDR1 [15] = assay: Efflux ratio of apparent permeability across apical to basolateral to basolateral to apical membrane membrane in MDCKII-MDR1at 3 uM in presence of valspodar; assay type: ADME, cell-based, Canis lupus familiaris; conditions: dog, MDCK-MDR1, with valspodar (concentration not stated)
[16] = Efflux ratio of apparent permeability across apical to basolateral to basolateral to apical membrane membrane in MDCK1 at 3 uM in presence of valspodar; assay type: ADME, cell-based, Canis lupus familiaris; conditions: dog, MDCK, with valspodar (concentration not stated)
[17] = Tmax in CD-1 mouse at 20 mg/kg, po 30 mins prior to 10 mg/kg, po docetaxel administration measured after 8 hrs by LC-MS/MS analysis; assay type: ADME, organism-based; conditions: in vivo, time 8.5 hrs
[18] = Half life in CD-1 mouse at 20 mg/kg, po 30 mins prior to 10 mg/kg, po docetaxel administration measured after 8 hrs by LC-MS/MS analysis; assay type: ADME, organism-based; conditions: in vivo, time 8.5 hrs

Sequence of Cytochrome P450 3A4 (P08684 whole entry): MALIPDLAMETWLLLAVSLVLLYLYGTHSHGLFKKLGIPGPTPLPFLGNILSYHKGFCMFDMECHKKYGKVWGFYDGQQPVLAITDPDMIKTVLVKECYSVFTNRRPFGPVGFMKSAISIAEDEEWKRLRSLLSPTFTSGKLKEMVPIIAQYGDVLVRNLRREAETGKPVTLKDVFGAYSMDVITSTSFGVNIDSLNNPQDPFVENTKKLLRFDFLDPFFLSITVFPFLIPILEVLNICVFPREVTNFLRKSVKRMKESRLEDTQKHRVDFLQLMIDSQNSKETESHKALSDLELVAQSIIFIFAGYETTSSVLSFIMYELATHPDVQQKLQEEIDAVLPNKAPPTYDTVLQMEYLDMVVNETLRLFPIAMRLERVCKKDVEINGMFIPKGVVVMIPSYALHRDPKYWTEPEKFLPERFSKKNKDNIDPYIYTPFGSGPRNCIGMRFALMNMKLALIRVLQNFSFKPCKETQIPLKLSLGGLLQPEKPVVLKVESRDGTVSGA

Compound | pIC50 (Cytochrome P450 3A4) | Activity (MES-SA/Dx5) [%] | also measured
COc1cc(NC(=O)c2cc(=O)c3ccccc3o2)c(-c2nnn(-c3ccc(CCN4CCc5ccncc5C4)cc3)n2)cc1OC | 5.98 | 1 | –
COc1cc2c(cc1OC)CN(CCc1ccc(-n3nnc(-c4cc(Oc5ccncc5)ccc4NC(=O)c4cc(=O)c5ccccc5o4)n3)cc1)CC2 | < 5.05 | 9 | –
COc1cc(NC(=O)c2cc(=O)c3ccccc3o2)c(-c2nnn(-c3ccc(CCN4CCc5cnccc5C4)cc3)n2)cc1OCc1ccccc1 | 5.91 | 3 | –
COc1cc(NC(=O)c2cc(=O)c3ccccc3o2)c(-c2nnn(-c3ccc(CCN4CCc5ccc(-n6ccnc6)cc5C4)cc3)n2)cc1OC | 6.40 | 1 | –
CC(=O)N1CCN(c2ccc(OCC3COC(Cn4ccnc4)(c4ccc(Cl)cc4Cl)O3)cc2)CC1 (configuration not stated) [KETOCONAZOLE] | – | 39 | –
COc1cc2c(cc1OC)CN(CCc1ccc(-n3nnc(-c4cc(OCc5cccnc5)ccc4NC(=O)c4cc(=O)c5ccccc5o4)n3)cc1)CC2 | < 5.05 | 3 | –
COc1cc(NC(=O)c2cc(=O)c3ccccc3o2)c(-c2nnn(-c3ccc(CCN4CCc5cc(-n6ccnc6)ccc5C4)cc3)n2)cc1OC | 6.52 | 10 | –
COc1cc2c(cc1OC)CN(CCc1ccc(-n3nnc(-c4cc(OC)c(OC)cc4NC(=O)c4cc(=O)c5cc(-n6ccnc6)ccc5o4)n3)cc1)CC2 | 5.48 | 6 | –
COc1cc2c(cc1OC)CN(CCc1ccc(-n3nnc(-c4cc(OCc5ccccc5)c(OC)cc4NC(=O)c4cc(=O)c5ccccc5o4)n3)cc1)CC2 | < 5.05 | 30 | –
COc1cc2c(cc1OC)CN(CCc1ccc(-n3nnc(-c4cc(OCc5ccncc5)ccc4NC(=O)c4cc(=O)c5ccccc5o4)n3)cc1)CC2 | < 5.05 | 33 | –
COc1cc(NC(=O)c2cc(=O)c3ccccc3o2)c(-c2nnn(-c3ccc(CCN4CCn5cncc5C4)cc3)n2)cc1OCc1ccccc1 | 5.69 | 13 | Papp B→A at 3 µM (MDR1 [6]): < 0.02 ×10⁻⁶ cm/s; Papp A→B at 3 µM (MDR1 [7]): < 0.02 ×10⁻⁶ cm/s

Second part, led by results:

pIC50 (Cytochrome P450 3A4) | Compound | Activity (MES-SA/Dx5) [%] | also measured
< 5.05 | COc1cc2c(cc1OC)CN(CCc1ccc(-n3nnc(-c4cc(OC)c(OC)cc4NC(=O)c4cc(=O)c5cc(-c6ccncc6)ccc5o4)n3)cc1)CC2 | 1 | –
6.29 | COc1cc2c(cc1OC)CN(CCc1ccc(-n3nnc(-c4cc(OC)c(OC)cc4NC(=O)c4ccc(-n5ccnc5)cc4)n3)cc1)CC2 | 5 | –
< 5.05 | COc1cc2c(cc1OC)CN(CCc1ccc(-n3nnc(-c4cc(OC)c(OC)cc4NC(=O)c4cc(=O)c5ccccc5o4)n3)cc1)CC2 | 6 | efflux ratio at 1 µM (MDR1 [1]): 1.73; efflux ratio at 1 µM [2]: 1.83; efflux ratio at 1 µM [3]: 1.36; Papp B→A at 1 µM (MDR1 [4]): 0.0049 ×10⁻⁶ cm/s; efflux ratio at 1 µM (MDR1 [5]): 5.74
6.07 | COc1cc(NC(=O)c2cnc3ccccc3c2)c(-c2nnn(-c3ccc(CCN4CCc5cnccc5C4)cc3)n2)cc1OCc1ccccc1 | 3 | –
5.97 | COc1cc(NC(=O)c2cc(=O)c3ccccc3o2)c(-c2nnn(-c3ccc(CCN4CCc5cnccc5C4)cc3)n2)cc1OC | 1 | Papp B→A at 3 µM (MDR1 [6]): < 0.02 ×10⁻⁶ cm/s; Papp A→B at 3 µM (MDR1 [7]): < 0.02 ×10⁻⁶ cm/s
5.83 | COc1cc2c(cc1OC)CN(CCc1ccc(-n3nnc(-c4cc(Oc5cccnc5)ccc4NC(=O)c4cc(=O)c5ccccc5o4)n3)cc1)CC2 | 2 | Cmax [8]: 3.4 nM; AUC(0-t) at 8.5 h [9]: 11.7 ng·h/mL; efflux ratio at 3 µM (MDR1 [10]): 0.277; Papp B→A at 3 µM (MDR1 [6]): 0.002 ×10⁻⁶ cm/s; Papp B→A at 3 µM [11]: < 0.002 ×10⁻⁶ cm/s; Cmax [12]: 2.46 ng/mL; Ratio [13]: < 0.22; Papp A→B at 3 µM (MDR1 [7]): 0.0072 ×10⁻⁶ cm/s; Papp A→B at 3 µM [14]: 0.0093 ×10⁻⁶ cm/s; efflux ratio at 3 µM (MDR1 [15]): 0.093; efflux ratio at 3 µM [16]: 0.085; Tmax [17]: 0.5 h; half-life [18]: 6.02 h
< 5.05 | COc1cc2c(cc1OC)CN(CCc1ccc(-n3nnc(-c4cc(OCc5cccnc5)c(OC)cc4NC(=O)c4cc(=O)c5ccccc5o4)n3)cc1)CC2 | 36 | –
6.83 | COc1cc(NC(=O)c2cc(=O)c3ccccc3o2)c(-c2nnn(-c3ccc(CCN4CCn5cncc5C4)cc3)n2)cc1OC | 6 | –
< 5.05 | COc1cc2c(cc1OC)CN(CCc1ccc(-n3nnc(-c4cc(OC)c(OC)cc4NC(=O)c4ccc(-c5cccnc5)cc4)n3)cc1)CC2 | 0 | –
< 5.05 | COc1cc2c(cc1OC)CN(CCc1ccc(-n3nnc(-c4cc(OC)c(OC)cc4NC(=O)c4ccc(-c5ccncc5)cc4)n3)cc1)CC2 | 11 | –
< 5.05 | COc1cc2c(cc1OC)CN(CCc1ccc(-n3nnc(-c4cc(OC)c(OC)cc4NC(=O)c4cc(=O)c5cc(Br)ccc5o4)n3)cc1)CC2 | 30 | –
6.14 | COc1cc2c(cc1OC)CN(CCc1ccc(-n3nnc(-c4cc(OCCc5cccnc5)ccc4NC(=O)c4cc(=O)c5ccccc5o4)n3)cc1)CC2 | 1 | –
